We go through 28 compounds from US20060116316A1, “Heterocyclic inhibitors of IRES-mediated translation and methods of use thereof” (priority 2004, published 2006).

The structures appear in SMILES notation. Where a SMILES comes first, the peptide text is derived from it.

This test concerns HCV IRES. The experiment in a line: HCV IRES reporter FACS assay (GFP expression ratio, intein-expressed cyclic peptides). Type of test: cell-based, Hepatitis C virus. The following applies: ratio at least 1.20 = significant activity. An excerpt: [The source words this procedure for another variant and says it was used here with some conditions changed.] Cells producing libraries of cyclic 3-mers and 4-mers (i.e., libraries of cyclic peptides that contain 3 or 4 amino acid residues) were constructed using methods identical to those of Kinsella et al (J Biol. Chem. 2002 277:37512-8), except different oligonucleotides were used for library construction. Clones from this library were screened in an assay shown in FIG. 2 to identify IRES-inhibitory compounds.
In summary, separate cyclic 3-mer and cyclic 4-mer libraries were constructed such that each peptide of the library contained a fixed Ser, Thr or Cys residue (at position 1) and the remaining residues were randomized. For library construction, degenerate oligonucleotides of sequence 5′-[…](AGC/ACC/TGC)(NNK)2 or 3 TGCATCAGCGGCGACAG-3′ were annealed to the primer 5′-[…]-3′ and extended using the Expand PCR kit (Roche Molecular Biochemicals). The double-stranded DNA insert was digested and inserted into the BclI/DrdI sites of DnaBO-e-BFP (ACUC). The plasmid libraries were electroporated into ElectroMAX DH 10B competent E. coli (Invitrogen) for amplification on LB+amp agar medium. […] Expression of the intein is detected by detecting BFP expression. Expression of the intein (and the cyclic peptide produced by the intein) is suppressible by addition of exogenous doxycycline. The amino acid sequence of the junctions of the intein scaffold used in making the 3-mer library is Val-His-Asn-X3 or 4-Cys-Ile-Ser, where X3 or 4 are three or four contiguous amino acids.
Infectious retroviral particles were produced by transfection of 15 µg of each library (as described in Swift et al, (1999). Current Protocols in Immunology Vol. 10.17C, pp. 1-17, Freeman, N.Y.) into approximately 5×10^6 Phoenix-A packaging cells. Each resulting library of retroviral particles was then used to infect 5×10^6 BJAB-S3A11 reporter cells and a FACS based selection was carried out to isolate cells with reduced HCV-IRES reporter output.
In detail, referring to FIG. 2, the cells used in the assay contained an IRES-dependent reporter system. […]. Also present in the cells is a control reporter system for assaying the activity of 5′ cap-dependent translation (the mechanism by which most cellular proteins are normally translated). The control reporter system contains a CMV promoter that drives the transcription of an RNA containing 5′ cap-dependent UTR, operably linked to an RNA encoding RFP (red fluorescent protein). Translation of RFP is dependent on the activity of the 5′ cap-dependent UTR.
Cells containing both the cyclic compound library and the reporter systems described above were first screened for survival upon exposure to diptheria toxin, and then screened by FACS to identify cells that had reduced GFP expression, as compared to RFP expression. Cells were expanded and replica-plated and grown in the presence or absence of dox (100 ng/ml) for four days. Plates were stimulated with IL-4 and GFP expression (relative to RFP) was monitored by flow cytometry. The IRES-inhibitory activity of a peptide is evaluated by calculating the ratio of the geometric mean of GFP expression of peptide positive cells (“peptide pos+” cells i.e., cells not contacted with dox) to the geometric mean of GFP expression of peptide negative cells (“peptide pos−” cells i.e., cells contacted with dox).
Cyclic peptides assigned higher scores have a greater IRES-inhibitory activity.
The number shown in parentheses after each of the amino acid sequences is the IRES-inhibitory activity ratio, as discussed above.
(Flow cytometry measures light scatter and fluorescence of single cells or particles in a stream.)

Setting [1] is: 3-mers from mutant intein scaffold, junction Val-His-Asn-X1X2X3-Trp-Ile-Ser.
Where [2] appears, read: 3-mers from mutant intein scaffold, junction Val-His-Tyr-X1X2X3-Cys-Ile-Ser.
Where [3] appears, read: BJAB-S3A11 reporter cells, +/- dox 100 ng/ml four days, library intein junction Val-His-Asn-X1X2X3-Cys-Ile-Ser.
Setting [4] is: 4-mers from mutant intein scaffold, junction Val-His-Asn-X1X2X3X4-Cys-Ser.

Take `NC(=O)C[C@@H]1NC(=O)[C@H](CO)NC(=O)[C@H](Cc2c[nH]c3ccccc23)NC1=O` [cyclo-SNW, cyclo[SNW]] (cyclo(Asn-Trp-Ser)): the “IRES-inhibitory activity ratio (geometric mean GFP expression, peptide positive cells / peptide negative cells)” value under setting [1] amounted to 2.10. For `O=C1N[C@@H](CO)C(=O)N2CCC[C@H]2C(=O)N[C@H]1Cc1c[nH]c2ccccc12` [cyclo-SPW, cyclo[SPW]] (cyclo(Pro-Trp-Ser)), the “IRES-inhibitory activity ratio (geometric mean GFP expression, peptide positive cells / peptide negative cells)” value under setting [1] worked out at 2.28. As to `NC(=O)CC[C@@H]1NC(=O)[C@H](CO)NC(=O)[C@H](Cc2c[nH]c3ccccc23)NC1=O` [cyclo-SQW, cyclo[SQW]] (cyclo(Gln-Trp-Ser)), the “IRES-inhibitory activity ratio (geometric mean GFP expression, peptide positive cells / peptide negative cells)” value under setting [1] was 2.20. On to `N=C(N)NCCC[C@@H]1NC(=O)[C@H](CO)NC(=O)[C@H](Cc2c[nH]c3ccccc23)NC1=O` [cyclo-SRW, cyclo[SRW]] (cyclo(Arg-Trp-Ser)), for which the “IRES-inhibitory activity ratio (geometric mean GFP expression, peptide positive cells / peptide negative cells)” value under setting [1] turned out to be 2.14. Regarding `O=C1N[C@@H](Cc2c[nH]c3ccccc23)C(=O)N[C@@H](CO)C(=O)N[C@H]1CO` [cyclo-SSW, cyclo[SSW]] (cyclo(Ser-Ser-Trp)), the “IRES-inhibitory activity ratio (geometric mean GFP expression, peptide positive cells / peptide negative cells)” value under setting [1] is listed as 2.05. In the case of `CC(C)[C@@H]1NC(=O)[C@H]([C@@H](C)O)NC(=O)[C@H](CO)NC1=O` [cyclo-STV, cyclo[STV]] (cyclo(Ser-Thr-Val)), the “IRES-inhibitory activity ratio (geometric mean GFP expression, peptide positive cells / peptide negative cells)” value under setting [2] amounted to 2.24. On to `C[C@@H](O)[C@@H]1NC(=O)[C@H](CO)NC(=O)[C@H](Cc2c[nH]c3ccccc23)NC1=O` [cyclo-STW, cyclo[STW]] (cyclo(Ser-Thr-Trp)), for which the “IRES-inhibitory activity ratio (geometric mean GFP expression, peptide positive cells / peptide negative cells)” value under setting [1] stood at 2.12. With `CCC(C)[C@@H]1NC(=O)[C@H](C(C)C)NC(=O)[C@H](CO)NC1=O` (stereo partly shown) [cyclo-SVI, cyclo[SVI]], the “IRES-inhibitory activity ratio (geometric mean GFP expression, peptide positive cells / peptide negative cells)” value under setting [3] was determined as 1.28. On to `CC(C)[C@@H]1NC(=O)[C@H](CO)NC(=O)[C@H](C(C)C)NC1=O` [cyclo-SVV, cyclo[SVV]] (cyclo(Ser-Val-Val)), for which the “IRES-inhibitory activity ratio (geometric mean GFP expression, peptide positive cells / peptide negative cells)” value under setting [3] was 1.64. Regarding `CC(C)[C@@H]1NC(=O)[C@H](CO)NC(=O)[C@H](Cc2c[nH]c3ccccc23)NC1=O` [cyclo-SVW, cyclo[SVW]] (cyclo(Ser-Val-Trp)), the “IRES-inhibitory activity ratio (geometric mean GFP expression, peptide positive cells / peptide negative cells)” value under setting [3] came to 1.3. As to `O=C1N[C@@H](Cc2c[nH]c3ccccc23)C(=O)N[C@@H](Cc2ccccc2)C(=O)N[C@H]1CO` [cyclo-SWF, cyclo[SWF]] (cyclo(Phe-Ser-Trp)), the “IRES-inhibitory activity ratio (geometric mean GFP expression, peptide positive cells / peptide negative cells)” value under setting [3] came to 1.33. As to `C[C@@H]1NC(=O)[C@H](Cc2ccccc2)NC(=O)[C@H](Cc2c[nH]c3ccccc23)NC(=O)[C@H](CO)NC1=O` [cyclo-SWFA, cyclo[SWFA]] (cyclo(ASWF)), under setting [4], the “IRES-inhibitory activity ratio (geometric mean GFP expression, peptide positive cells / peptide negative cells)” value is listed as 1.31. For `NCCCC[C@@H]1NC(=O)[C@H](Cc2ccccc2)NC(=O)[C@H](Cc2c[nH]c3ccccc23)NC(=O)[C@H](CO)NC1=O` [cyclo-SWFK, cyclo[SWFK]] (cyclo(FKSW)), the “IRES-inhibitory activity ratio (geometric mean GFP expression, peptide positive cells / peptide negative cells)” value under setting [4] is reported as 1.58. With `CSCC[C@@H]1NC(=O)[C@H](Cc2ccccc2)NC(=O)[C@H](Cc2c[nH]c3ccccc23)NC(=O)[C@H](CO)NC1=O` [cyclo-SWFM, cyclo[SWFM]] (cyclo(FMSW)), the “IRES-inhibitory activity ratio (geometric mean GFP expression, peptide positive cells / peptide negative cells)” value under setting [4] was 1.31. With `N=C(N)NCCC[C@@H]1NC(=O)[C@H](Cc2ccccc2)NC(=O)[C@H](Cc2c[nH]c3ccccc23)NC(=O)[C@H](CO)NC1=O` [cyclo-SWFR, cyclo[SWFR]] (cyclo(FRSW)), the “IRES-inhibitory activity ratio (geometric mean GFP expression, peptide positive cells / peptide negative cells)” value under setting [4] amounted to 1.44.

For `CCC(C)[C@@H]1NC(=O)[C@H](Cc2c[nH]c3ccccc23)NC(=O)[C@H](CO)NC1=O` (stereo partly shown) [cyclo-SWI, cyclo[SWI]], the “IRES-inhibitory activity ratio (geometric mean GFP expression, peptide positive cells / peptide negative cells)” value under setting [3] is given as 1.36. As for `CSCC[C@@H]1NC(=O)[C@H](Cc2c[nH]c3ccccc23)NC(=O)[C@H](CO)NC1=O` [cyclo-SWM, cyclo[SWM]] (cyclo(Met-Ser-Trp)), the “IRES-inhibitory activity ratio (geometric mean GFP expression, peptide positive cells / peptide negative cells)” value under setting [3] was found to be 1.22.

Regarding `CC(C)[C@@H]1NC(=O)[C@H](Cc2c[nH]c3ccccc23)NC(=O)[C@H](CO)NC1=O` [cyclo-SWV, cyclo[SWV]] (cyclo(Ser-Trp-Val)), the “IRES-inhibitory activity ratio (geometric mean GFP expression, peptide positive cells / peptide negative cells)” value under setting [3] amounted to 1.83. Consider `O=C1N[C@@H](Cc2c[nH]c3ccccc23)C(=O)N[C@@H](Cc2c[nH]c3ccccc23)C(=O)N[C@H]1CO` [cyclo-SWW, cyclo[SWW]] (cyclo(Ser-Trp-Trp)), for which the “IRES-inhibitory activity ratio (geometric mean GFP expression, peptide positive cells / peptide negative cells)” value under setting [3] was 2.37. Consider `N=C(N)NCCC[C@@H]1NC(=O)[C@H](Cc2c[nH]c3ccccc23)NC(=O)[C@H](Cc2c[nH]c3ccccc23)NC(=O)[C@H](CO)NC1=O` [cyclo-SWWR, cyclo[SWWR]] (cyclo(RSWW)), for which the “IRES-inhibitory activity ratio (geometric mean GFP expression, peptide positive cells / peptide negative cells)” value under setting [4] stood at 2.03. `O=C1N[C@@H](Cc2c[nH]c3ccccc23)C(=O)N[C@@H](Cc2ccc(O)cc2)C(=O)N[C@H]1CO` [cyclo-SWY, cyclo[SWY]] (cyclo(Ser-Trp-Tyr)): the “IRES-inhibitory activity ratio (geometric mean GFP expression, peptide positive cells / peptide negative cells)” value under setting [3] is 1.38.

As to `N=C(N)NCCC[C@@H]1NC(=O)[C@H](Cc2ccc(O)cc2)NC(=O)[C@H](Cc2c[nH]c3ccccc23)NC(=O)[C@H](CO)NC1=O` [cyclo-SWYR, cyclo[SWYR]] (cyclo(RSWY)), the “IRES-inhibitory activity ratio (geometric mean GFP expression, peptide positive cells / peptide negative cells)” value under setting [4] amounted to 1.49. On to `CC(C)[C@@H]1NC(=O)[C@H](Cc2ccc(O)cc2)NC(=O)[C@H](CO)NC1=O` [cyclo-SYV, cyclo[SYV]] (cyclo(Ser-Tyr-Val)), for which the “IRES-inhibitory activity ratio (geometric mean GFP expression, peptide positive cells / peptide negative cells)” value under setting [3] was determined as 1.4.

As to `O=C1N[C@@H](Cc2ccc(O)cc2)C(=O)N[C@@H](Cc2c[nH]c3ccccc23)C(=O)N[C@H]1CO` [cyclo-SYW, cyclo[SYW]] (cyclo(Ser-Tyr-Trp)), the “IRES-inhibitory activity ratio (geometric mean GFP expression, peptide positive cells / peptide negative cells)” value under setting [3] was found to be 1.64. With `CC(C)[C@@H]1NC(=O)[C@H](C)NC(=O)[C@H]([C@@H](C)O)NC1=O` [cyclo-TAV, cyclo[TAV]] (cyclo(Ala-Val-Thr)), the “IRES-inhibitory activity ratio (geometric mean GFP expression, peptide positive cells / peptide negative cells)” value under setting [2] was 2.00. `C[C@@H]1NC(=O)[C@H]([C@@H](C)O)NC(=O)[C@H](Cc2c[nH]c3ccccc23)NC1=O` [cyclo-TAW, cyclo[TAW]] (cyclo(Ala-Trp-Thr)): the “IRES-inhibitory activity ratio (geometric mean GFP expression, peptide positive cells / peptide negative cells)” value under setting [1] came out at 5.09. Turning to `C[C@@H](O)[C@@H]1NC(=O)[C@H](Cc2c[nH]c3ccccc23)NC(=O)[C@H](CS)NC1=O` [cyclo-TCW, cyclo[TCW]] (cyclo(Cys-Trp-Thr)), the “IRES-inhibitory activity ratio (geometric mean GFP expression, peptide positive cells / peptide negative cells)” value under setting [3] worked out at 1.48. Same read-out and setting: under `C[C@@H](O)[C@@H]1NC(=O)[C@H](Cc2c[nH]c3ccccc23)NC(=O)[C@H](Cc2ccccc2)NC1=O` [cyclo-TFW, cyclo[TFW]] (cyclo(Phe-Trp-Thr)) stands 1.75.
